Measured values reported in ChEMBL document CHEMBL1909046, “DrugMatrix in vitro pharmacology data”.

Columns and labels:
[1] = molecular target: T1, Muscarinic acetylcholine receptor M2 (Homo sapiens, UniProt P08172); assay type: cell membranes, CHO-K1, Membrane; conditions: cho-k1; note: in other assays of this panel Not Active means under 50% inhibition at 10 µM
T1 sequence (P08172 whole entry): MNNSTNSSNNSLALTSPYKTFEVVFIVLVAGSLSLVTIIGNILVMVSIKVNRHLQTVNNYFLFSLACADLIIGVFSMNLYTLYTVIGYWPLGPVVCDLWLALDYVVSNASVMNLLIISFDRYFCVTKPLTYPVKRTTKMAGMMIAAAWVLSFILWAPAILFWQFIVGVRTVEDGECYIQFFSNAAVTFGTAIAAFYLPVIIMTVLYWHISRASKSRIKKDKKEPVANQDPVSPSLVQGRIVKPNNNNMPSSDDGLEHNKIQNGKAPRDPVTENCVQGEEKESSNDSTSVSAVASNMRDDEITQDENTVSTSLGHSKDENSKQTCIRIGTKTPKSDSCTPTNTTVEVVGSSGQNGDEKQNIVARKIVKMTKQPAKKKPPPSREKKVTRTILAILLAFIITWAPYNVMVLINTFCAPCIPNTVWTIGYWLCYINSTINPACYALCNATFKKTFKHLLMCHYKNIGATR

[2] = molecular target: T2, Muscarinic acetylcholine receptor M4 (Homo sapiens, UniProt P08173); assay type: cell membranes, CHO-K1, Membrane; conditions: cho-k1; note: in other assays of this panel Not Active means under 50% inhibition at 10 µM
T2 sequence (P08173 whole entry): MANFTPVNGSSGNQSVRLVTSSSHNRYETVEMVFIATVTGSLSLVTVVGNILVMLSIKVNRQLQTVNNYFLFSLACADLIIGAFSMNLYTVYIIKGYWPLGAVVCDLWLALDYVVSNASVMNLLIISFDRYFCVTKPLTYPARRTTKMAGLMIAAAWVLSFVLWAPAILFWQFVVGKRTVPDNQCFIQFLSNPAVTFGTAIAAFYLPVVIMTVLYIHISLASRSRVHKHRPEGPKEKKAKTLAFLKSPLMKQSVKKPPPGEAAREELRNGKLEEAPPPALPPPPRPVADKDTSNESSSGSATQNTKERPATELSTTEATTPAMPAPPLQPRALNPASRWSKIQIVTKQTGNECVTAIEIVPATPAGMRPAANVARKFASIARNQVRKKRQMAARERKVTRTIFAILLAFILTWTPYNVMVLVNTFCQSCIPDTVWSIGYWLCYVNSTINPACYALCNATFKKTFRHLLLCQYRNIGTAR

Cytochrome P450 2A6 = molecular target: T3, Cytochrome P450 2A6 (Homo sapiens, UniProt P11509); conditions: bti-tn-5b1-4; note: in other assays of this panel Not Active means under 50% inhibition at 10 µM
T3 sequence (P11509 whole entry): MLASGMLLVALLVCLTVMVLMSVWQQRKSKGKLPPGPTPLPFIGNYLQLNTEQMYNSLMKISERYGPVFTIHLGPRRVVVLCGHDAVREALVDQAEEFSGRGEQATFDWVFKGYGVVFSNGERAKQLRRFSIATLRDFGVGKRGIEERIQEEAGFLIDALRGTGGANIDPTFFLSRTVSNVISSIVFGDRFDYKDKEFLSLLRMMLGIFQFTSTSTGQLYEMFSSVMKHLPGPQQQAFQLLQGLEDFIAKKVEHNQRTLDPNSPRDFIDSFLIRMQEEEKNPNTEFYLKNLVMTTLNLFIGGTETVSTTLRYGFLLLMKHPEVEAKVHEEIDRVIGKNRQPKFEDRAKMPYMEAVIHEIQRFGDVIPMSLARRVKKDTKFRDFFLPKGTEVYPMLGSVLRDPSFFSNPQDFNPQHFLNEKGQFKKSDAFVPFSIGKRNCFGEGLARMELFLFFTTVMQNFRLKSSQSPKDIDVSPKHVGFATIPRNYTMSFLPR

[3] = DRUGMATRIX: Potassium Channel [KATP] radioligand binding (ligand: [3H] Glyburide); assay type: cell membranes, Membrane; conditions: hit-t15; Not Active = under 50% inhibition at 10 µM
Cytochrome P450 2E1 = Cytochrome P450 2E1 (Homo sapiens, UniProt P05181); conditions: bti-tn-5b1-4; note: in other assays of this panel Not Active means under 50% inhibition at 10 µM
Chain of Cytochrome P450 2E1 (P05181 whole entry): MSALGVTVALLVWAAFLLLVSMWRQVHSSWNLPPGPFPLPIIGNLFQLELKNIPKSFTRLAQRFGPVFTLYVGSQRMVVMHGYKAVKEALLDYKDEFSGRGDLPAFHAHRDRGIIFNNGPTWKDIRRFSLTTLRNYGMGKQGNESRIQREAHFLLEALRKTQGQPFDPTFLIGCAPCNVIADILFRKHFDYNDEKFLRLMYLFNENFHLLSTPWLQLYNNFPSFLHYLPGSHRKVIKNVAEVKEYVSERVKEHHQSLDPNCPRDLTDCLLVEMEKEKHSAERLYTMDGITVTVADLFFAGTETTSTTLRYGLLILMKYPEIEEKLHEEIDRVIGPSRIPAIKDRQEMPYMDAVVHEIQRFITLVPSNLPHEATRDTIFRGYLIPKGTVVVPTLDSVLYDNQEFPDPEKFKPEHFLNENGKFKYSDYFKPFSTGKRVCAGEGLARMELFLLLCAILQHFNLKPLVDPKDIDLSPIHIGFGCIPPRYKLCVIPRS

Cathepsin G = molecular target: T4, Cathepsin G (Homo sapiens, UniProt P08311); assay type: tissue-based; conditions: neutrophil
T4 sequence (P08311 whole entry): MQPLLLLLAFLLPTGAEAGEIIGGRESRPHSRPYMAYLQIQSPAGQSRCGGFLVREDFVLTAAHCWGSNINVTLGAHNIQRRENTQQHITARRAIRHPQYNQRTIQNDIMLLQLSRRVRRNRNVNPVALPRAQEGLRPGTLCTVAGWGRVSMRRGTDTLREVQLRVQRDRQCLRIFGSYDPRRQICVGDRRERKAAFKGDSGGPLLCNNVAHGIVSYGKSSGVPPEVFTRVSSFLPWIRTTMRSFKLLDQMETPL

[4] = DRUGMATRIX: Interleukin IL-1 radioligand binding (ligand: [125I] interleukin 1beta); assay type: cell membranes, Membrane; conditions: nih3t3; Not Active = under 50% inhibition at 10 µM

CC(C)(CO)C(O)C(=O)NCCCO (centres undefined) [PANTHENOL]
Not Active: IC50 [1] | IC50 [2] | IC50 (Cytochrome P450 2A6) | Ki (Cytochrome P450 2A6) | IC50 [3] | Ki [3] | IC50 (Cytochrome P450 2E1) | Ki (Cytochrome P450 2E1) | IC50 (Cathepsin G) | IC50 [4] | Ki [4]

COc1ccc(Cc2nccc3cc(OC)c(OC)cc23)cc1OC [PAPAVERINE]
Not Active: IC50 [1] | IC50 [2] | IC50 (Cytochrome P450 2A6) | Ki (Cytochrome P450 2A6) | IC50 [3] | Ki [3] | IC50 (Cytochrome P450 2E1) | Ki (Cytochrome P450 2E1) | IC50 (Cathepsin G) | IC50 [4] | Ki [4]

OCCN1CCN(CCCN2c3ccccc3Sc3ccc(Cl)cc32)CC1 [PERPHENAZINE]
Not Active: IC50 [1] | IC50 [2] | IC50 (Cytochrome P450 2A6) | Ki (Cytochrome P450 2A6) | IC50 [3] | Ki [3] | IC50 (Cytochrome P450 2E1) | Ki (Cytochrome P450 2E1) | IC50 (Cathepsin G) | IC50 [4] | Ki [4]

CCCCC1C(=O)N(c2ccccc2)N(c2ccccc2)C1=O [PHENYLBUTAZONE]
Not Active: IC50 [1] | IC50 [2] | IC50 (Cytochrome P450 2A6) | Ki (Cytochrome P450 2A6) | IC50 [3] | Ki [3] | IC50 (Cytochrome P450 2E1) | Ki (Cytochrome P450 2E1) | IC50 (Cathepsin G) | IC50 [4] | Ki [4]

Cc1cccc(Nc2cc(Cl)nc(SCC(=O)O)n2)c1C [PIRINIXIC ACID]
Not Active: IC50 [1] | IC50 [2] | IC50 (Cytochrome P450 2A6) | Ki (Cytochrome P450 2A6) | IC50 [3] | Ki [3] | IC50 (Cytochrome P450 2E1) | Ki (Cytochrome P450 2E1) | IC50 (Cathepsin G) | IC50 [4] | Ki [4]

CC[C@H](C)C(=O)O[C@H]1C[C@H](O)C=C2C=C[C@H](C)[C@H](CC[C@@H](O)C[C@@H](O)CC(=O)O)[C@H]21 [PRAVASTATIN]
Not Active: IC50 [1] | IC50 [2] | IC50 (Cytochrome P450 2A6) | Ki (Cytochrome P450 2A6) | IC50 [3] | Ki [3] | IC50 (Cytochrome P450 2E1) | Ki (Cytochrome P450 2E1) | IC50 (Cathepsin G) | IC50 [4] | Ki [4]

CC(C)(Sc1cc(C(C)(C)C)c(O)c(C(C)(C)C)c1)Sc1cc(C(C)(C)C)c(O)c(C(C)(C)C)c1 [PROBUCOL]
Not Active: IC50 [1] | IC50 [2] | IC50 (Cytochrome P450 2A6) | Ki (Cytochrome P450 2A6) | IC50 [3] | Ki [3] | IC50 (Cytochrome P450 2E1) | Ki (Cytochrome P450 2E1) | IC50 (Cathepsin G) | IC50 [4] | Ki [4]

COBALT(II) ACETYLACETONATE
Not Active: IC50 [1] | Ki [1] | IC50 [2] | Ki [2] | IC50 (Cytochrome P450 2A6) | Ki (Cytochrome P450 2A6) | IC50 [3] | Ki [3] | IC50 (Cytochrome P450 2E1) | Ki (Cytochrome P450 2E1) | IC50 (Cathepsin G) | Ki (Cathepsin G) | IC50 [4] | Ki [4]

INSULIN HUMAN
Not Active: IC50 [1] | Ki [1] | IC50 [2] | Ki [2] | IC50 (Cytochrome P450 2A6) | Ki (Cytochrome P450 2A6) | IC50 [3] | Ki [3] | IC50 (Cytochrome P450 2E1) | Ki (Cytochrome P450 2E1) | IC50 (Cathepsin G) | Ki (Cathepsin G) | IC50 [4] | Ki [4]

POLYVINYL ALCOHOL
Not Active: IC50 [1] | Ki [1] | IC50 [2] | Ki [2] | IC50 (Cytochrome P450 2A6) | Ki (Cytochrome P450 2A6) | IC50 [3] | Ki [3] | IC50 (Cytochrome P450 2E1) | Ki (Cytochrome P450 2E1) | IC50 (Cathepsin G) | Ki (Cathepsin G) | IC50 [4] | Ki [4]
